Laboratory results as given in PMC3400893 (Clinical Pharmacology and Therapeutics, 2012).
One block for each molecule: values may come before it.

Legend:
patients with T2DM [1] = test: 28-day randomized placebo-controlled study: efficacy/pharmacodynamics; format: in vivo, human; details: for Decrease in FPG from baseline after correcting for changes in placebo values: after 28 days; for OGTT glucose excursions above baseline FPG lower than placebo: corrected for FPG at hour 0
[2] = 28-day study: plasma LX4211 pharmacokinetics; format: in vivo, human; details: for Tmax: both, human, plasma, oral
patients with T2DM [3] = test: Single-dose three-way crossover study: pharmacodynamics; format: in vivo, human
healthy volunteers = test: Phase I trial in healthy volunteers; format: in vivo, human; details: 300-mg dose, phase I trial (data not shown)
patients with T2DM [4] = test: 28-day study: safety, adverse events and clinical laboratory values
humans = details: taken orally at high doses; ref [46]; cited from earlier work
[5] = ref [47],[48]; cited from earlier work
[6] = single 300-mg dose of any of the LX4211 formulations
[7] = 150 or 300 mg once daily for 28 days

- Time after dosing at which Cmax appeared ([2]; 150 and 300 mg, oral liquid): 0.5 to 2.0 h
- Dose proportionality of increases in Cmax and AUC ([2]; 150 vs 300 mg): slightly more than dose-proportional
- Steady state reached ([2]; based on Cmax, AUC0–tau, Cmin, possibly even by day 7): ≤ 14 days
- Tmax ([2]; Median tmax, days 14 and 28, the two dose groups): 1 to 1.5 h
- Tmax ([2]; tmax, individual values, the two dose groups): 0.48 to 2.02 h
- Time at which plasma concentrations were detected ([2]; each LX4211 dose, oral liquid): ≤ 15 min
Structure (SMILES): CCOc1ccc(Cc2cc([C@@H]3O[C@H](SC)[C@@H](O)[C@H](O)[C@H]3O)ccc2Cl)cc1 [LX4211, (2S,3R,4R,5S,6R)-2-(4-chloro-3-(4-ethoxybenzyl)phenyl)-6-(methylthio)tetrahydro-2H-pyran-3,4,5-triol]
- FPG reduction from baseline (patients with T2DM [1]; 150 mg once daily, day 7, placebo 9 mg/dl increase): 30 mg/dL
- Decrease in FPG from baseline after correcting for changes in placebo values (patients with T2DM [1]; 150 mg): 39 mg/dL
- Net 24-h UGE increase relative to placebo (patients with T2DM [1]; 150 mg, day 1): 44 g/day
- OGTT glucose AUC (hour 0 to 4) lower than placebo (patients with T2DM [1]; 150 mg, day 2): 30%
- OGTT glucose AUC (hour 0 to 4) lower than placebo (patients with T2DM [1]; 150 mg, day 13): 35%
- OGTT glucose AUC (hour 0 to 4) lower than placebo (patients with T2DM [1]; 150 mg, day 27): 38%
- OGTT glucose excursions above baseline FPG lower than placebo (patients with T2DM [1]; 150 mg, day 27): 46%
- Decrease from baseline HbA1c after correcting for changes in placebo values (patients with T2DM [1]; 150 mg, day 28): 0.66
- Net 24-h UGE increase relative to placebo (patients with T2DM [1]; 150 mg, day 28): 37 g/day
- Decrease in FPG from baseline after correcting for changes in placebo values (patients with T2DM [1]; 300 mg): 55 mg/dL
- Net 24-h UGE increase relative to placebo (patients with T2DM [1]; 300 mg, day 1): 65 g/day
- OGTT glucose AUC (hour 0 to 4) lower than placebo (patients with T2DM [1]; 300 mg, day 2): 30%
- OGTT glucose AUC (hour 0 to 4) lower than placebo (patients with T2DM [1]; 300 mg, day 13): 36%
- OGTT glucose AUC (hour 0 to 4) lower than placebo (patients with T2DM [1]; 300 mg, day 27): 39%
- OGTT glucose excursions above baseline FPG lower than placebo (patients with T2DM [1]; 300 mg, day 27): 46%
- Decrease from baseline HbA1c after correcting for changes in placebo values (patients with T2DM [1]; 300 mg, day 28): 0.76
- Net 24-h UGE increase relative to placebo (patients with T2DM [1]; 300 mg, day 28): 48 g/day
- Amount of glucose excreted in the first 8 h vs the period spanning 8–24 h (patients with T2DM [1]; LX4211-treated groups): comparable
- Total GLP-1 levels after meals (patients with T2DM [1]; LX4211-treated groups, day 1 (similar on day 28), post hoc analysis): nonsignificant increase
- Mean serum triglyceride (TG) level (fell to within the normal range) (patients with T2DM [1]; both LX4211-treated groups (150 and 300 mg), by day 14): < 151 mg/dL
- Mean homeostasis model assessment of insulin resistance vs placebo (patients with T2DM [1]; both LX4211 groups, day 27): significantly lower
- Serum TG vs placebo (patients with T2DM [1]; both doses, post hoc analysis): statistically significant TG reductions
- 24-h UGE vs placebo (patients with T2DM [1]; both treatment groups, days 1, 14 and 28): significantly increased
- 2-h postprandial glucose (PPG) levels vs placebo (patients with T2DM [1]; each treatment group, days 1, 7, 21 and 28): significantly lowered
- Patients with HbA1c levels ≤7.0% (patients with T2DM [1]; patients who received LX4211 (150 or 300 mg), day 28, placebo 18%): 50%
- Glucagon values vs day −1 (patients with T2DM [3]; single 300-mg dose): not altered
- Plasma insulin between 0 and 13 h vs day −1 (patients with T2DM [3]; [6]): significantly decreased
- Total GLP-1 between 0 and 13 h vs day −1 (patients with T2DM [3]; [6]): significantly increased
- Total PYY between 0 and 13 h vs day −1 (patients with T2DM [3]; [6]): significantly increased
- UGE over the next 24 h vs pretreatment day (day −1) (patients with T2DM [3]; [6]): significantly increased
- Tolerability and glycosuric effect (healthy volunteers): well tolerated and produced a maximal glycosuric effect
- Renal toxicity (laboratory data) (patients with T2DM [4]; [7]): no evidence of renal toxicity
- Treatment-emergent urinary tract infections, genital infections, CV events, episodes of hypoglycemia (patients with T2DM [4]; [7]): no treatment-emergent urinary tract infections, genital infections, CV events, or episodes of hypoglycemia
- 24-h urine volume relative to placebo (patients with T2DM [4]; LX4211-treated groups, day 1): slight but nonsignificant increase
- Urinary calcium excretion (patients with T2DM [4]; LX4211-treated groups, days 1, 14, 28): at no time during the study was urinary calcium excretion increased
- Safety and tolerability (patients with T2DM [4]; at the doses and schedule employed (150 or 300 mg once daily, 28 days)): safe and well tolerated
- Urinary sodium and chloride excretion relative to placebo (patients with T2DM [4]; day 1, statistically significant in the 300 mg group): modest increases
- Frequency of gastrointestinal side effects relative to placebo (patients with T2DM [4]; even after challenge with 75 g of glucose during OGTTs): did not observe an increase

Structure (SMILES): O=C(CCc1ccc(O)cc1)c1c(O)cc(O)cc1O[C@@H]1O[C@H](CO)[C@@H](O)[C@H](O)[C@H]1O [Phlorizin, phlorizin]
- Nausea (humans): induces nausea
- Conversion in the small intestine [5]: rapidly converted to phloretin
